The NIST ThermoML archive (doi:10.1007/s10765-006-0088-4)
Numbers after ± are expanded uncertainties.

Details: Liquid; for vapor or sublimation pressure: Closed cell (Static) method

CCC [propane]
Details | vapor or sublimation pressure [kPa]
280 K | 583.1 ± 1.2
300 K | 999 ± 2.1
320 K | 1599.8 ± 3.3
340 K | 2432.2 ± 5
360 K | 3556.3 ± 7.2
365 K | 3894.1 ± 7.9
367 K | 4036.8 ± 8.2
369 K | 4184.4 ± 8.5

mass density [kg/m3]
Details | 340 K | 360 K | 380 K | 400 K
3000 kPa, Vibrating tube method | 418.08 ± 0.51 | – | – | –
5000 kPa, Vibrating tube method | 433.15 ± 0.54 | 380.52 ± 0.48 | – | –
10000 kPa, Buoyancy - hydrostatic balance with magnetic suspension - two sinkers | 457.22 ± 0.51 | 423.91 ± 0.47 | 383.94 ± 0.42 | 334.82 ± 0.37
20000 kPa, Buoyancy - hydrostatic balance with magnetic suspension - one sinker | 486.49 ± 0.54 | 463.18 ± 0.52 | 438.11 ± 0.49 | 412.17 ± 0.46
30000 kPa, Buoyancy - hydrostatic balance with magnetic suspension - one sinker | 506.41 ± 0.56 | 486.97 ± 0.55 | 466.65 ± 0.53 | 446.42 ± 0.51
40000 kPa, Bellows volumetry | 521.92 ± 0.58 | 504.75 ± 0.56 | 486.9 ± 0.54 | 469.52 ± 0.52
50000 kPa, Bellows volumetry | 534.58 ± 0.6 | 519.13 ± 0.59 | 502.92 ± 0.57 | 487.17 ± 0.56
60000 kPa, Bellows volumetry | 545.76 ± 0.61 | 531.24 ± 0.6 | 516.27 ± 0.59 | 501.88 ± 0.58
70000 kPa, Bellows volumetry | 555.4 ± 0.62 | 541.74 ± 0.61 | 527.68 ± 0.6 | 514.4 ± 0.59
80000 kPa, Bellows volumetry | 564.13 ± 0.63 | 551.28 ± 0.62 | 537.77 ± 0.61 | 525.29 ± 0.6
90000 kPa, Bellows volumetry | 571.96 ± 0.64 | 559.54 ± 0.63 | 546.83 ± 0.62 | 534.99 ± 0.61
100000 kPa, Bellows volumetry | 579.21 ± 0.65 | 567.52 ± 0.64 | 555.08 ± 0.63 | 543.68 ± 0.62
120000 kPa, Bellows volumetry | 592 ± 0.67 | 581.13 ± 0.66 | 569.69 ± 0.65 | 559.13 ± 0.64
140000 kPa, Bellows volumetry | 603.23 ± 0.68 | 593.24 ± 0.67 | 582.4 ± 0.66 | 572.43 ± 0.65
160000 kPa, Bellows volumetry | 613.42 ± 0.74 | 603.94 ± 0.74 | 593.57 ± 0.74 | 584.27 ± 0.74
180000 kPa, Bellows volumetry | 622.47 ± 0.76 | 613.6 ± 0.75 | 603.76 ± 0.75 | 594.86 ± 0.75
200000 kPa, Bellows volumetry | 631.34 ± 0.78 | 622.28 ± 0.76 | 612.75 ± 0.77 | 604.47 ± 0.77
